Results on 25 compounds are retold here after patent publication US20230077362A1 (CORTEVA AGRISCIENCE LLC, priority 2019, published 2023).

Read-outs that look alike come from different tables or passages of the source.

Assay [1] relates to Beet Armyworm (Spodoptera exigua) ("BAW"), second instar larvae. Description: Bioassay on beet armyworm (BAW), 128-well diet tray assay. Type of assay: in vivo. The note with it: Spodoptera exigua. Here is the method:
(§1) Certain molecules disclosed in this document were tested against BAW and CL using procedures described in the following examples. In the reporting of the results, the “BAW & CL Rating Table” was used (See Table Section).
(§2) Trays were covered with a clear self-adhesive cover and held at 25° C., 14:10 light-dark cycle for five to seven days. Percent mortality was recorded for the larvae in each well; activity in the eight wells was then averaged. The results are indicated in the table entitled “Table ABC: Biological Results” (See Table Section).

Assay [2] relates to Cabbage Looper (Trichoplusia ni) ("CL"), second instar larvae. The experiment in a line: Bioassay on cabbage looper (CL), 128-well diet tray assay. It counts as in vivo. The note with it: Trichoplusia ni. The protocol: as §1, §2
Setting [3] is: read-out: BAW (Biological Results, rating).
[4] abbreviates: read-out: CL (Biological Results, rating).

For the compound `Cc1ccc(C(F)(F)F)c(N2C(=O)CS/C2=N\C(=O)NC(C)Cc2ccc(-c3ncn(-c4ccc(OC(F)(F)F)cc4)n3)cc2)c1` (centres unmarked) [Compound H4], the pest or weed control at 50 µg/cm2 in assay [1] (setting [3]) and in assay [2] (setting [4]) was 50 to 100% in each case.

In the case of `O=C(/N=C1\SCC(=O)N1c1cc(Cl)ccc1C(F)(F)F)NCC(F)c1ccc(-c2ncn(-c3ccc(OC(F)(F)F)cc3)n2)cc1` (centres unmarked) [Compound H6], the pest or weed control at 50 µg/cm2 in assay [1] (setting [3]) and in assay [2] (setting [4]) was 50 to 100% each time. Turning to `N#CC(CNC(=O)/N=C1\SCC(=O)N1c1cc(Cl)ccc1C(F)(F)F)c1ccc(-c2ncn(-c3ccc(OC(F)(F)F)cc3)n2)cc1` (centres unmarked) [Compound H8, (Z)-1-(3-(5-chloro-2-(trifluoromethyl)phenyl)-4-oxothiazolidin-2-ylidene)-3-(2-cyano-2-(4-(1-(4-(trifluoromethoxy)phenyl)-1H-1,2,4-triazol-3-yl)phenyl)ethyl)urea], the pest or weed control at 50 µg/cm2 in assay [1] (setting [3]) and in assay [2] (setting [4]) was 50 to 100% throughout.

For `O=C(/N=C1\SCC(=O)N1c1ccccc1C(F)(F)F)Nc1ccc(-c2ncn(-c3ccc(OC(F)(F)F)cc3)n2)cc1` [Compound H10], the pest or weed control at 50 µg/cm2 in assay [1] (setting [3]) and in assay [2] (setting [4]) was 50 to 100% in each case. Turning to `Cc1ccc(CC(F)(F)F)c(N2C(=O)CS/C2=N\C(=O)NCCc2ccc(-c3ncn(-c4ccc(OC(F)(F)F)cc4)n3)cc2)c1` [Compound H12], the pest or weed control at 50 µg/cm2 in assay [1] (setting [3]) and in assay [2] (setting [4]) was 50 to 100% throughout. For the compound `Cc1ccc(CC(F)(F)F)c(N2C(=O)CS/C2=N\C(=O)NCC(F)c2ccc(-c3ncn(-c4ccc(OC(F)(F)F)cc4)n3)cc2)c1` (centres unmarked) [Compound H13], the pest or weed control at 50 µg/cm2 in assay [1] (setting [3]) and in assay [2] (setting [4]) was 50 to 100% throughout.

As for `COc1ccc(CC(F)(F)F)c(N2C(=O)CS/C2=N\C(=O)NC(C)Cc2ccc(-c3ncn(-c4ccc(OC(F)(F)F)cc4)n3)cc2)c1` (centres unmarked) [Compound H15], the pest or weed control at 50 µg/cm2 in assay [1] (setting [3]) and in assay [2] (setting [4]) was 50 to 100% throughout. Take `COc1ccc(CC(F)(F)F)c(N2C(=O)CS/C2=N\C(=O)NCC(F)c2ccc(-c3ncn(-c4ccc(OC(F)(F)F)cc4)n3)cc2C)c1` (centres unmarked) [Compound H16]: the pest or weed control at 50 µg/cm2 in assay [1] (setting [3]) and in assay [2] (setting [4]) was 50 to 100% throughout. Turning to `COc1ccc(CC(F)(F)F)c(N2C(=O)CS/C2=N\C(=O)NCC(F)c2ccc(-c3ncn(-c4ccc(OC(F)(F)F)cc4)n3)c(OC)c2)c1` (centres unmarked) [Compound H17], the pest or weed control at 50 µg/cm2 in assay [1] (setting [3]) and in assay [2] (setting [4]) was 50 to 100% each time.

As to `Cc1ccc(C(C)C)c(N2C(=O)CS/C2=N\C(=O)Nc2ccc(-c3ncn(-c4ccc(OC(F)(F)C(F)(F)F)cc4)n3)c(C)c2)c1` [Compound J2], the pest or weed control at 50 µg/cm2 in assay [1] (setting [3]) and in assay [2] (setting [4]) was 50 to 100% each time.

For `Cc1ccc(C(C)C)c(N2C(=O)CS/C2=N\C(=O)Nc2ccc(-c3ncn(-c4ccc(C(F)(F)F)cc4)n3)c(C)c2)c1` [Compound J4, (Z)-1-(3-(2-Isopropyl-5-methylphenyl)-4-oxothiazolidin-2-ylidene)-3-(3-methyl-4-(1-(4-(trifluoromethyl)phenyl)-1H-1,2,4-triazol-3-yl)phenyl)urea], the pest or weed control at 50 µg/cm2 in assay [1] (setting [3]) and in assay [2] (setting [4]) was 50 to 100% throughout.

In the case of `COc1ccc(C(C)C)c(N2C(=O)CS/C2=N\C(=O)Nc2ccc(-c3ncn(-c4ccc(C(F)(F)F)cc4)n3)c(C)c2)c1` [Compound J5, (Z)-1-(3-(2-Isopropyl-5-methoxyphenyl)-4-oxothiazolidin-2-ylidene)-3-(3-methyl-4-(1-(4-(trifluoromethyl)phenyl)-1H-1,2,4-triazol-3-yl)phenyl)urea], the pest or weed control at 50 µg/cm2 in assay [1] (setting [3]) and in assay [2] (setting [4]) was 50 to 100% in each case. With `COc1ccc(C(C)C)c(N2C(=O)CS/C2=N\C(=O)Nc2ccc(-c3ncn(-c4ccc(OC(F)(F)F)cc4)n3)cc2OC)c1` [Compound J6, (Z)-1-(3-(2-Isopropyl-5-methoxyphenyl)-4-oxothiazolidin-2-ylidene)-3-(2-methoxy-4-(1-(4-(trifluoromethoxy)phenyl)-1H-1,2,4-triazol-3-yl)phenyl)urea], the pest or weed control at 50 µg/cm2 in assay [1] (setting [3]) and in assay [2] (setting [4]) was 50 to 100% throughout. Turning to `COc1ccc(C(C)C)c(N2C(=O)CS/C2=N\C(=O)Nc2ccc(-c3ncn(-c4ccc(OC(F)(F)C(F)(F)F)cc4)n3)c(C)c2)c1` [Compound J7, (Z)-1-(3-(2-Isopropyl-5-methoxyphenyl)-4-oxothiazolidin-2-ylidene)-3-(3-methyl-4-(1-(4-(perfluoroethoxy)phenyl)-1H-1,2,4-triazol-3-yl)phenyl)urea], the pest or weed control at 50 µg/cm2 in assay [1] (setting [3]) and in assay [2] (setting [4]) was 50 to 100% throughout.

In the case of `COc1ccc(C(C)C)c(N2C(=O)CS/C2=N\C(=O)Nc2ccc(-c3ncn(-c4ccc(C(F)(F)F)cc4)n3)cc2C)c1` [Compound J8, (Z)-1-(3-(2-Isopropyl-5-methoxyphenyl)-4-oxothiazolidin-2-ylidene)-3-(2-methyl-4-(1-(4-(trifluoromethyl)phenyl)-1H-1,2,4-triazol-3-yl)phenyl)urea], the pest or weed control at 50 µg/cm2 in assay [1] (setting [3]) and in assay [2] (setting [4]) was 50 to 100% throughout. On to `COc1ccc(C(C)C)c(N2C(=O)CS/C2=N\C(=O)Nc2ccc(-c3ncn(-c4ccc(C(F)(F)F)cc4)n3)cc2OC)c1` [Compound J10, (Z)-1-(3-(2-Isopropyl-5-methoxyphenyl)-4-oxothiazolidin-2-ylidene)-3-(2-methoxy-4-(1-(4-(trifluoromethyl)phenyl)-1H-1,2,4-triazol-3-yl)phenyl)urea], for which the pest or weed control at 50 µg/cm2 in assay [1] (setting [3]) and in assay [2] (setting [4]) was 50 to 100% throughout.

For `Cc1ccc(OCC(F)(F)F)c(N2C(=O)CS/C2=N\C(=O)Nc2ccc(-c3ncn(-c4ccc(OC(F)(F)F)cc4)n3)cc2O)c1` [Compound J176, (Z)-1-(2-Hydroxy-4-(1-(4-(trifluoromethoxy)phenyl)-1H-1,2,4-triazol-3-yl)phenyl)-3-(3-(5-methyl-2-(2,2,2-trifluoroethoxy)phenyl)-4-oxothiazolidin-2-ylidene)urea], the pest or weed control at 50 µg/cm2 in assay [1] (setting [3]) is 0 to 50%. Regarding `COC(C)c1ccc(C)cc1N1C(=O)CS/C1=N\C(=O)Nc1ccc(-c2ncn(-c3ccc(C(F)(F)F)cn3)n2)cc1C(C)=O` (centres unmarked) [Compound J416, (Z)-1-(2-Acetyl-4-(1-(5-(trifluoromethyl)pyridin-2-yl)-1H-1,2,4-triazol-3-yl)phenyl)-3-(3-(2-(1-methoxyethyl)-5-methylphenyl)-4-oxothiazolidin-2-ylidene)urea], the pest or weed control at 50 µg/cm2 in assay [2] (read-out: CL rating) was 50 to 100%. On to `CC(=O)c1cc(-c2ncn(-c3ccc(C(F)(F)F)cn3)n2)ccc1NC(=O)/N=C1\SCC(=O)N1c1cc(C)ccc1COCC(F)(F)F` [Compound J418, (Z)-1-(2-Acetyl-4-(1-(5-(trifluoromethyl)pyridin-2-yl)-1H-1,2,4-triazol-3-yl)phenyl)-3-(3-(5-methyl-2-((2,2,2-trifluoroethoxy)methyl)phenyl)-4-oxothiazolidin-2-ylidene)urea], for which the pest or weed control at 50 µg/cm2 in assay [1] (read-out: BAW rating) is 0 to 50%. The same measure, in the same setting: the result for `Cc1ccc(OCCC(F)(F)F)c(N2C(=O)CS/C2=N\C(=O)Nc2ccc(-c3cn(-c4ccc(OC(F)(F)F)cc4)nn3)cc2)c1` [Compound J491, (Z)-1-(3-(5-Methyl-2-(3,3,3-trifluoropropoxy)phenyl)-4-oxothiazolidin-2-ylidene)-3-(4-(1-(4-(trifluoromethoxy)phenyl)-1H-1,2,3-triazol-4-yl)phenyl)urea] reads 50 to 100%; that for `CN(C)c1ccc(C(F)(F)F)c(N2C(=O)CS/C2=N\C(=O)Nc2ccc(-c3cn(-c4ccc(OC(F)(F)F)cc4)nn3)cc2)c1` [Compound J495, (Z)-1-(3-(5-(Dimethylamino)-2-(trifluoromethyl)phenyl)-4-oxothiazolidin-2-ylidene)-3-(4-(1-(4-(trifluoromethoxy)phenyl)-1H-1,2,3-triazol-4-yl)phenyl)urea], 0 to 50%; that for `Cc1ccc(OCCC(F)(F)F)c(N2C(=O)CS/C2=N\C(=O)Nc2ccc(-c3nnc(-c4ccc(OC(F)(F)F)cc4)s3)cc2F)c1` [Compound J501, (Z)-1-(2-Fluoro-4-(5-(4-(trifluoromethoxy)phenyl)-1,3,4-thiadiazol-2-yl)phenyl)-3-(3-(5-methyl-2-(3,3,3-trifluoropropoxy)phenyl)-4-oxothiazolidin-2-ylidene)urea], 50 to 100%. Take `CCOCc1ccc(C)cc1N1C(=O)CS/C1=N\C(=O)Nc1ccc(-c2nnc(-c3ccc(OC(F)(F)F)cc3)s2)cc1F` [Compound J503, (Z)-1-(3-(2-(Ethoxymethyl)-5-methylphenyl)-4-oxothiazolidin-2-ylidene)-3-(2-fluoro-4-(5-(4-(trifluoromethoxy)phenyl)-1,3,4-thiadiazol-2-yl)phenyl)urea]: the pest or weed control at 50 µg/cm2 in assay [2] (read-out: CL rating) was 50 to 100%. On to `COC(c1ccc(C)cc1N1C(=O)CS/C1=N\C(=O)Nc1ccc(-c2nnc(-c3ccc(OC(F)(F)F)cc3)s2)cc1F)C(F)(F)F` (centres unmarked) [Compound J505, (Z)-1-(2-Fluoro-4-(5-(4-(trifluoromethoxy)phenyl)-1,3,4-thiadiazol-2-yl)phenyl)-3-(3-(5-methyl-2-(2,2,2-trifluoro-1-methoxyethyl)phenyl)-4-oxothiazolidin-2-ylidene)urea], for which the pest or weed control at 50 µg/cm2 in assay [2] (read-out: CL rating) was in the range of 50 to 100%. In the case of `O=C(/N=C1\SCC(=O)N1c1cccc(-c2ccccc2)c1)Nc1ccc(-c2ncn(-c3ccc(OC(F)(F)F)cc3)n2)cc1F` [Compound J715, (Z)-1-(3-([1,1′-Biphenyl]-3-yl)-4-oxothiazolidin-2-ylidene)-3-(2-fluoro-4-(1-(4-(trifluoromethoxy)phenyl)-1H-1,2,4-triazol-3-yl)phenyl)urea], the pest or weed control at 50 µg/cm2 in assay [1] (read-out: BAW rating) lay in the range of 0 to 50%.
